Patent US20040197396A1, “Anhydrous crystal form of valaciclovir hydrochloride” (priority 2001, published 2004)
Where a name gives a salt, the structure may show the parent alone.

Legend:
[1] = relative to acyclovir; statement in words; cited from earlier work
[2] = Water content by Karl Fisher titration; format: physicochemical; details: Example 11 sample
Procedure: The water of hydration content is measured by the Karl Fischer method which is well known in the art and is described in the 1990 US Pharmacopoeia at pages 1619-1621, and the European Pharmacopoeia, second edition (1992) part 2, sixteenth fascicule at v. 3.5-6.1. Water content (by Karl Fisher titration): 0.61% w/w

[3] = Thermogravimetric analysis (TGA); format: physicochemical; details: from 182-310° C.; scan rate 10° C. per minute
Procedure: Thermogravimetric analysis was carried out on a Perkin-Elmer Pyris-1 TGA system. Scan rate of 10° C. per minute. Sample size 3.757 mg. The TGA trace is provided at FIG. 6.

[4] = Stability and hygroscopicity of the crystal form (stated, no method); format: physicochemical; details: statement in words

Water content (by Karl Fisher titration) [2] [% w/w]	Weight loss associated with melting/decomposition [3] [% w/w]	Hygroscopicity [4]	Stability of the crystal form [4]	SMILES	Bioavailability [1]
–	–	–	–	CC(C)[C@H](N)C(=O)OCCOCn1cnc2c(=O)[nH]c(N)nc21 [valaciclovir]	much improved bioavailability
0.61	42.97	essentially non-hygroscopic	stable	CC(C)[C@H](N)C(=O)OCCOCn1cnc2c(=O)[nH]c(N)nc21 [Form 2 Valaciclovir Hydrochloride, valaciclovir hydrochloride]	–
